Data: patent publication US11369113B2, “Vector control compositions, methods and products utilizing same” (Syngenta Participations AG, priority 2017, dated 2022)
Where two headings read alike, the source gives them in different places.

What was measured:
Format in all cases: in vivo
[1] = test system: Aedes aegypti (Yellow Fever Mosquito); experiment: whole plant or invertebrate; conditions: for mortality at 0.2 ppm / mortality at 2 ppm / mortality at 20 ppm: Aedes aegypti
Procedure: (§1) […] Once the deposits were dry, five non-blood fed adult female Aedes aegypti (between two to five day old) were added to each well, and sustained with a 10% sucrose solution in a cotton wool plug. Assessment of the knockdown was carried our after 1 hour, and mortality after 24 hours and 48 hours.

[2] = test system: Kisumu sus (Anopheles gambiae, susceptible); experiment: Example B4: bottle based cross resistance study (CDC bottle assay), strain Kisumu sus; conditions: read-out: mean knockdown or mortality (Table B4 does not name the quantity)
Procedure: (§2) Based on the “CDC bottle assay” (described at http://www.cdc.gov/malaria/resources/pdf/fsp/ir_manual/ir_cdc_bioassay_en.pdf) 1 ml of ethanol containing a test compound at a defined concentration was added to a 250 ml glass bottle and the bottles were placed on a rolling table to coat the inner surfaces as the solvent evaporated. Once dry, twenty five non-blood fed adult female mosquitoes of the appropriate species and strains (each three day old) were aspirated from the stock culture and gently blown into the exposure bottles. The lid of the bottle was replaced and the bottle placed upright out of direct sun light under standard culture conditions, nominally 26° C. and 60-80% relative humidity.
(§3) A stopwatch was started, and the assessment of the knock-down were made after 15 mins and 60 minutes. A mosquito was said to be knocked down if it was unable to stand, following the CDC definition. The bottles were replaced in an upright position when not being assessed.
(§4) After one hour the mosquitoes were carefully removed from the bottle with an aspirator and placed in a recovery cup. The mosquitoes were supplied with a 10% sucrose solution on a cotton wool bung, and stored under culture conditions. Assessments of the mortality were made after 24 hours.
(§5) Each treatment was replicated a minimum of three times, with the exception of the Banfora strain, where only a single replicate was undertaken, with the mean knockdown or mortality recorded. In each study, a set of bottles was infested with a known insecticide susceptible strain of mosquitoes from the same genera as the resistant strains.

Anopheles stephensi = experiment: Example B3: treated 6-well plate contact test, adult female Anopheles stephensi; conditions: for mortality at 0.3125 ppm / mortality at 0.625 ppm / mortality at 1.25 ppm / mortality at 2.5 ppm: Anopheles stephensi; for Knockdown 1 h: mean of two replicates
Procedure: The individual wells of six (6) well tissue culture plates were treated with 250 μl of an ethanol solution containing a test compound at a defined concentration. Once the deposits were dry, ten non-blood fed adult female Anopheles stephensi (each between two to five day old) were added to each well, and sustained with a 10% sucrose solution in a cotton wool plug. Assessment of the knockdown was carried our after 1 hour, and mortality after 24 hours and 48 hours. Each treatment was replicated twice, with the mean mortality recorded.

[3] = test system: Banfora (An. gambiae, DDT & pyrethroid resistant); experiment: Example B4: bottle based cross resistance study (CDC bottle assay), strain Banfora; conditions: Anopheles gambiae, read-out: knockdown or mortality (Table B4 does not name the quantity)
Procedure: as §2, §3, §4, §5

[4] = test system: Tiassalé 13 (An. gambiae, pyrethroid resistant); experiment: Example B4: bottle based cross resistance study (CDC bottle assay), strain Tiassalé 13; conditions: Anopheles gambiae, read-out: mean knockdown or mortality (Table B4 does not name the quantity)
Procedure: as §2, §3, §4, §5

[5] = test system: VK7 2014 (An. coluzzii, DDT & pyrethroid resistant); experiment: Example B4: bottle based cross resistance study (CDC bottle assay), strain VK7 2014; set-up: unit not given here; conditions: 1 h bottle exposure
Procedure: as §2, §3, §4, §5

[6] = test system: Anopheles stephensi (Indian Malaria Mosquito); experiment: Example B2: treated 12-well plate contact test, adult female Anopheles stephensi; conditions: for mortality at 0.2 ppm / mortality at 2 ppm / mortality at 20 ppm: Anopheles stephensi
Procedure: as §1, with “Anopheles stephensi” for “Aedes aegypti”

[7] = 0.2 ppm, 24 h, read-out: adult mortality 24 h
[8] = 0.2 ppm, 48 h, read-out: adult mortality 48 h
[9] = 2 ppm, 24 h, read-out: adult mortality 24 h
[10] = 2 ppm, 48 h, read-out: adult mortality 48 h
[11] = 20 ppm, 24 h, read-out: adult mortality 24 h
[12] = 20 ppm, 48 h, read-out: adult mortality 48 h
[13] = Banfora, rate 6.25 ppm, 1 h bottle exposure, single replicate
[14] = Banfora, rate 12.5 ppm, 1 h bottle exposure, single replicate
[15] = Banfora, rate 25 ppm, 1 h bottle exposure, single replicate
[16] = Tiassalé 13, rate 6.25 ppm, 1 h bottle exposure
[17] = Tiassalé 13, rate 12.5 ppm, 1 h bottle exposure
[18] = Tiassalé 13, rate 25 ppm, 1 h bottle exposure
[19] = 24 h, read-out: adult mortality 24 h
[20] = 48 h, read-out: adult mortality 48 h

## CO/C=C(/C(=O)OC)c1ccccc1Oc1nc(Cl)c(C(F)(F)F)s1 [Compound of formula I, Methyl (E)-2-[2-[4-chloro-5-(trifluoromethyl)thiazol-2-yl]oxyphenyl]-3-methoxy-prop-2-enoate]
[1]; 0.2 ppm
  adult knockdown 1 h: 0
[1]; 2 ppm
  adult knockdown 1 h: 20
[1]; 20 ppm
  adult knockdown 1 h: 100
[1]; [7]
  mortality at 0.2 ppm: 20%
[1]; [8]
  mortality at 0.2 ppm: 20%
[1]; [9]
  mortality at 2 ppm: 60%
[1]; [10]
  mortality at 2 ppm: 80%
[1]; [11]
  mortality at 20 ppm: 100%
[1]; [12]
  mortality at 20 ppm: 100%
[2]; Kisumu sus, rate 6.25 ppm, 1 h bottle exposure
  percent knockdown or mortality at 6.25 ppm: 74%
[2]; Kisumu sus, rate 12.5 ppm, 1 h bottle exposure
  percent knockdown or mortality at 12.5 ppm: 99%
[2]; Kisumu sus, rate 25 ppm, 1 h bottle exposure
  percent knockdown or mortality at 25 ppm: 100%
Anopheles stephensi; 24 h, read-out: Mortality 24 h
  mortality at 0.3125 ppm: 63%
  mortality at 0.625 ppm: 80%
  mortality at 1.25 ppm: 98%
  mortality at 2.5 ppm: 100%
Anopheles stephensi; 48 h, read-out: Mortality 48 h
  mortality at 0.3125 ppm: 65%
  mortality at 0.625 ppm: 82%
  mortality at 1.25 ppm: 100%
  mortality at 2.5 ppm: 100%
Anopheles stephensi; rate 0.3125 ppm
  Knockdown 1 h: 20
Anopheles stephensi; rate 0.625 ppm
  Knockdown 1 h: 43
Anopheles stephensi; rate 1.25 ppm
  Knockdown 1 h: 70
Anopheles stephensi; rate 2.5 ppm
  Knockdown 1 h: 87
[3]; [13]
  knockdown or mortality (%) at 6.25 ppm: 26%
[3]; [14]
  knockdown or mortality (%) at 12.5 ppm: 52%
[3]; [15]
  knockdown or mortality (%) at 25 ppm: 100%
[4]; [16]
  mean knockdown or mortality at 6.25 ppm: 69%
[4]; [17]
  mean knockdown or mortality at 12.5 ppm: 81%
[4]; [18]
  mean knockdown or mortality at 25 ppm: 100%
[5]; VK7 2014, rate 6.25 ppm
  mean knockdown or mortality (Table B4 does not name the quantity): 10
[5]; VK7 2014, rate 12.5 ppm
  mean knockdown or mortality (Table B4 does not name the quantity): 61
[5]; VK7 2014, rate 25 ppm
  mean knockdown or mortality (Table B4 does not name the quantity): 100
[6]; 0.2 ppm
  adult knockdown 1 h: 0
[6]; 2 ppm
  adult knockdown 1 h: 80
[6]; 20 ppm
  adult knockdown 1 h: 100
[6]; [19]
  mortality at 0.2 ppm: 20%
  mortality at 2 ppm: 100%
  mortality at 20 ppm: 100%
[6]; [20]
  mortality at 0.2 ppm: 20%
  mortality at 2 ppm: 100%
  mortality at 20 ppm: 100%

## CO/C=C(/C(=O)OC)c1ccccc1Oc1ncc(C(F)(F)F)s1 [Compound of formula II, Methyl (E)-3-methoxy-2-[2-[5-(trifluoromethyl)thiazol-2-yl]oxyphenyl]-prop-2-enoate]
[1]; 0.2 ppm
  adult knockdown 1 h: 0
[1]; 2 ppm
  adult knockdown 1 h: 0
[1]; 20 ppm
  adult knockdown 1 h: 100
[1]; [7]
  mortality at 0.2 ppm: 0%
[1]; [8]
  mortality at 0.2 ppm: 0%
[1]; [9]
  mortality at 2 ppm: 0%
[1]; [10]
  mortality at 2 ppm: 0%
[1]; [11]
  mortality at 20 ppm: 100%
[1]; [12]
  mortality at 20 ppm: 100%
[2]; 1 h
  percent knockdown or mortality at 6.25 ppm: 61%
  percent knockdown or mortality at 12.5 ppm: 33%
  percent knockdown or mortality at 25 ppm: 100%
Anopheles stephensi; 24 h, read-out: Mortality 24 h
  mortality at 0.3125 ppm: 15%
  mortality at 0.625 ppm: 33%
  mortality at 1.25 ppm: 83%
  mortality at 2.5 ppm: 93%
Anopheles stephensi; 48 h, read-out: Mortality 48 h
  mortality at 0.3125 ppm: 22%
  mortality at 0.625 ppm: 30%
  mortality at 1.25 ppm: 88%
  mortality at 2.5 ppm: 97%
Anopheles stephensi; rate 0.3125 ppm
  Knockdown 1 h: 13
Anopheles stephensi; rate 0.625 ppm
  Knockdown 1 h: 27
Anopheles stephensi; rate 1.25 ppm
  Knockdown 1 h: 48
Anopheles stephensi; rate 2.5 ppm
  Knockdown 1 h: 73
[3]; [13]
  knockdown or mortality (%) at 6.25 ppm: 13%
[3]; [14]
  knockdown or mortality (%) at 12.5 ppm: 33%
[3]; [15]
  knockdown or mortality (%) at 25 ppm: 100%
[4]; [16]
  mean knockdown or mortality at 6.25 ppm: 55%
[4]; [17]
  mean knockdown or mortality at 12.5 ppm: 46%
[4]; [18]
  mean knockdown or mortality at 25 ppm: 100%
[5]; VK7 2014, rate 6.25 ppm
  mean knockdown or mortality (Table B4 does not name the quantity): 7
[5]; VK7 2014, rate 12.5 ppm
  mean knockdown or mortality (Table B4 does not name the quantity): 18
[5]; VK7 2014, rate 25 ppm
  mean knockdown or mortality (Table B4 does not name the quantity): 100
[6]; 0.2 ppm
  adult knockdown 1 h: 0
[6]; 2 ppm
  adult knockdown 1 h: 0
[6]; 20 ppm
  adult knockdown 1 h: 100
[6]; [19]
  mortality at 0.2 ppm: 0%
  mortality at 2 ppm: 80%
  mortality at 20 ppm: 100%
[6]; [20]
  mortality at 0.2 ppm: 0%
  mortality at 2 ppm: 100%
  mortality at 20 ppm: 100%

## CC1(C)C(C=C(Cl)Cl)C1C(=O)OCc1cccc(Oc2ccccc2)c1 (stereo not drawn) [Permethrin]
[2]; 1 h
  percent knockdown or mortality at 5 ppm: 100%
  percent knockdown or mortality at 10 ppm: 100%
  percent knockdown or mortality at 20 ppm: 100%
[3]; 1 h
  knockdown or mortality (%) at 6.25 ppm: 14%
  knockdown or mortality (%) at 12.5 ppm: 38%
  knockdown or mortality (%) at 25 ppm: 45%
[4]; 1 h
  mean knockdown or mortality at 6.25 ppm: 13%
  mean knockdown or mortality at 12.5 ppm: 45%
  mean knockdown or mortality at 25 ppm: 69%
[5]; VK7 2014, rate 6.25 ppm
  mean knockdown or mortality (Table B4 does not name the quantity): 5
[5]; VK7 2014, rate 12.5 ppm
  mean knockdown or mortality (Table B4 does not name the quantity): 3
[5]; VK7 2014, rate 25 ppm
  mean knockdown or mortality (Table B4 does not name the quantity): 7
